For test [1], the target named is T1, Alpha-2C adrenergic receptor (Homo sapiens, UniProt P18825).
T1 sequence (P18825 whole entry): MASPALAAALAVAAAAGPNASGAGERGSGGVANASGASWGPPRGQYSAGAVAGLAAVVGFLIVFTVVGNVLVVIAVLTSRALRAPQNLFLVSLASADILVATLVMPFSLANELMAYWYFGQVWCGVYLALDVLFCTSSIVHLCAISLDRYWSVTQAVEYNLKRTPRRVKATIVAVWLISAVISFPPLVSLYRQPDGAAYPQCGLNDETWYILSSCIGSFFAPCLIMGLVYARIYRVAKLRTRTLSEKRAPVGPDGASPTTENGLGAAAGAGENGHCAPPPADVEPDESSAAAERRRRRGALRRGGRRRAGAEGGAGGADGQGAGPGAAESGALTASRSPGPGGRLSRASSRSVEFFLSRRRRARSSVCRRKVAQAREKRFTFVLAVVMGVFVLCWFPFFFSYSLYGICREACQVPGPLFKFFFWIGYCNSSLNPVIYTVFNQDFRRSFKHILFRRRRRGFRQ
Format: functional.

In test [2] the target is Gamma-aminobutyric acid receptor subunit alpha-1 (Rattus norvegicus, UniProt P62813).
Gamma-aminobutyric acid receptor subunit alpha-1, sequence (P62813 whole entry): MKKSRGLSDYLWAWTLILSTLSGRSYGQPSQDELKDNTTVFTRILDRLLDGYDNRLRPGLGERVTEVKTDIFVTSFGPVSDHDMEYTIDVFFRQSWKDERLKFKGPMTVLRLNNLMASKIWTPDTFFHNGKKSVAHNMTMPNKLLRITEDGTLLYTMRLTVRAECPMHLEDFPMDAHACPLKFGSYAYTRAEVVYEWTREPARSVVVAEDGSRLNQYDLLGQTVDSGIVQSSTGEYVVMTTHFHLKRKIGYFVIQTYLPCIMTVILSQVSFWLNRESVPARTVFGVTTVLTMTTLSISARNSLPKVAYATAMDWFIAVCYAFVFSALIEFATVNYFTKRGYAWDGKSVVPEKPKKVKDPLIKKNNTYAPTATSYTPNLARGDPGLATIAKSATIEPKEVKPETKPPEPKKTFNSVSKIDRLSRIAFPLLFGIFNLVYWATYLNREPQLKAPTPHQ
Test [3] deals with Voltage-gated inwardly rectifying potassium channel KCNH2 (Homo sapiens, UniProt Q12809). Format: functional.
Voltage-gated inwardly rectifying potassium channel KCNH2, sequence (Q12809 whole entry): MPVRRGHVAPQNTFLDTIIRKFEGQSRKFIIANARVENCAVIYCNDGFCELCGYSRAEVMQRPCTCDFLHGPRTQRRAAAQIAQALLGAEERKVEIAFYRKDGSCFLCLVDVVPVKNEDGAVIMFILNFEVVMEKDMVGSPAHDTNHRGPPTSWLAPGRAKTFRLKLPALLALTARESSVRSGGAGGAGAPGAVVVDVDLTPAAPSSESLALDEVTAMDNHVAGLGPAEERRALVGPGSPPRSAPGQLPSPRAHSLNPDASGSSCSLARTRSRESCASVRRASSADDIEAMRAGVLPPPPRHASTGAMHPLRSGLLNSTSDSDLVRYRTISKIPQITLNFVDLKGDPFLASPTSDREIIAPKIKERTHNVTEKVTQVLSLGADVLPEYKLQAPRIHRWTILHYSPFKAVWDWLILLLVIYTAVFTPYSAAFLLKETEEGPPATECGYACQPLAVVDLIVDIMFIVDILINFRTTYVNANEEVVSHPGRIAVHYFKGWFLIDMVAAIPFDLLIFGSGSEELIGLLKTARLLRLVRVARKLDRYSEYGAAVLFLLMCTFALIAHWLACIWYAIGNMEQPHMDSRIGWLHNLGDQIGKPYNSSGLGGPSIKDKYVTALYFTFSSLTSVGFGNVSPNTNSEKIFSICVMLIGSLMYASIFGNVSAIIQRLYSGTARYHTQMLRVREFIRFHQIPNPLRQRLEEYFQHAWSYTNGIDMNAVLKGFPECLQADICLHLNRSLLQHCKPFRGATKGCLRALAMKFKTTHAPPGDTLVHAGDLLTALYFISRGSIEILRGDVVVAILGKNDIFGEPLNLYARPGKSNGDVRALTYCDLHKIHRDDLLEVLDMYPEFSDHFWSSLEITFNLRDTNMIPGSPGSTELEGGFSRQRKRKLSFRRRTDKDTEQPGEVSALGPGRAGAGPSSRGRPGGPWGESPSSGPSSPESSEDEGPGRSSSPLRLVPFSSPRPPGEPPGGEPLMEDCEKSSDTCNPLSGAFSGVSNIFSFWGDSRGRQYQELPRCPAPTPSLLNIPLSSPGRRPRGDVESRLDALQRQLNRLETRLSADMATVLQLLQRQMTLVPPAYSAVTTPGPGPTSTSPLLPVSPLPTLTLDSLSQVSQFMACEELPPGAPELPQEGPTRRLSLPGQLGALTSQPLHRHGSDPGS
In test [4] the target is T2, Neuropeptide Y receptor type 1 (Homo sapiens, UniProt P25929).
T2 sequence (P25929 whole entry): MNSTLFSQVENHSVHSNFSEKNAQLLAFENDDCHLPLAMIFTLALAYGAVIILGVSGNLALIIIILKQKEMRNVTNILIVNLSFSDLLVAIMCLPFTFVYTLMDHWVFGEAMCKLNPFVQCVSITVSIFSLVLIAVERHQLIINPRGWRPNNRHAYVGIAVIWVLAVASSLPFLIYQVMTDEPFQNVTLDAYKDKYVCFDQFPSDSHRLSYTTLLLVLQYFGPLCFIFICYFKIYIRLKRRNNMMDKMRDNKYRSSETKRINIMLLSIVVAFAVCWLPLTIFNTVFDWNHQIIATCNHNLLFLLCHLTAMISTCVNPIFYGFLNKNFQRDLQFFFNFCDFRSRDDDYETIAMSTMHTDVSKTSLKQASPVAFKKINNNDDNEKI

Test [5] addresses Delta-type opioid receptor (Homo sapiens, UniProt P41143).
Test [6] deals with T3, Prostaglandin G/H synthase 1 (Rattus norvegicus, UniProt Q63921).
T3 sequence (Q63921 whole entry): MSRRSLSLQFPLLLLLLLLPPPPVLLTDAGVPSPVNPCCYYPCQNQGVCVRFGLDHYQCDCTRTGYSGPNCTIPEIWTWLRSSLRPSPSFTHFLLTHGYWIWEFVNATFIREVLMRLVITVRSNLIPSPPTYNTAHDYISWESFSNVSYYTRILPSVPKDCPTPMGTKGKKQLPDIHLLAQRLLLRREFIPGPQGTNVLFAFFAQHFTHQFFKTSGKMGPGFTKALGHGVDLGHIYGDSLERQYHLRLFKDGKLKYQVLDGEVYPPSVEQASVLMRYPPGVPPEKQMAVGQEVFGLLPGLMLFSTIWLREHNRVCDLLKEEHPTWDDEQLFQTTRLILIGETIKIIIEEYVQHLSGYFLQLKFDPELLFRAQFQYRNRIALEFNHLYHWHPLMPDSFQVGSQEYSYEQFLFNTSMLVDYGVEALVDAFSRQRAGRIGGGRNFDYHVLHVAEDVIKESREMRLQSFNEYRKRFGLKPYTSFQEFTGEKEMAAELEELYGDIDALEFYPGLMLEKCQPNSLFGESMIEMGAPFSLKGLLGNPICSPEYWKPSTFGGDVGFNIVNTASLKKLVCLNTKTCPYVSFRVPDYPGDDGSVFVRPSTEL
Format: functional.

Each structure is given as a SMILES string.

These results are taken from ChEMBL document CHEMBL5291721, “A preclinical secondary pharmacology resource illuminates target-adverse drug reaction associations of marketed drugs” (Nat Commun, 2023).

As a reminder, the AC50 is the concentration giving half of the maximal activity seen.
Note: assay procedure not described here.

Delta-type opioid receptor, sequence (P41143 whole entry): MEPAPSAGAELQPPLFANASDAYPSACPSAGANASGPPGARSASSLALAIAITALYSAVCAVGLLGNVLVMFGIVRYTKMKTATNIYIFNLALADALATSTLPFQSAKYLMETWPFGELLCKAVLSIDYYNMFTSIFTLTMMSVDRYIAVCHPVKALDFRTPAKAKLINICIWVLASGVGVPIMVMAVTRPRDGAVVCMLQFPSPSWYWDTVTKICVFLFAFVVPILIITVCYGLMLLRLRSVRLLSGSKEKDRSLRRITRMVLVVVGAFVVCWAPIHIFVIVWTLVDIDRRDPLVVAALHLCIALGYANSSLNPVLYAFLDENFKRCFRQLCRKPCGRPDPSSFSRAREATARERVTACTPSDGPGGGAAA

As for `C[C@@H](NCCCc1cccc(C(F)(F)F)c1)c1cccc2ccccc12`, the half-maximal activity concentration (AC50) in test [1] was 0.83 µM; in test [2], more than 30 µM; in test [3] it was 1.3 µM; in test [4] (read-out: AC50) it was more than 10 µM; in test [5], more than 30 µM; in test [6] it was more than 30 µM.

In the case of `COc1ccc(CC2c3cc(OC)c(OC)cc3CC[N+]2(C)CCC(=O)OCCCCCOC(=O)CC[N+]2(C)CCc3cc(OC)c(OC)cc3C2Cc2ccc(OC)c(OC)c2)cc1OC` (stereo not drawn), the AC50 in test [1] was 2.7 µM; in test [2] it was more than 30 µM; in test [3], 0.16 µM; in test [4] (read-out: AC50) it was more than 30 µM; in test [5] it was more than 30 µM; in test [6], more than 30 µM.

As to `CCN1CCN(Cc2ccc(Nc3ncc(F)c(-c4cc(F)c5nc(C)n(C(C)C)c5c4)n3)nc2)CC1` [ABEMACICLIB], the AC50 was more than 30 µM in test [1], 6 µM in test [3], more than 30 µM in test [5] and more than 30 µM in test [6].

For `COc1ccccc1Oc1c(NS(=O)(=O)c2ccc(C(C)(C)C)cc2)nc(-c2ncccn2)nc1OCCO` [BOSENTAN], the AC50 in test [1] is more than 10 µM; in test [2], more than 10 µM; in test [3] it was more than 30 µM; in test [4] (read-out: AC50), more than 30 µM; in test [5], more than 30 µM; in test [6], more than 30 µM.

For the compound `CC(C(=O)O)c1ccc2c(c1)[nH]c1ccc(Cl)cc12` (stereo not drawn) [CARPROFEN], the AC50 in test [1] is more than 10 µM; in test [2], more than 10 µM; in test [3], more than 30 µM; in test [4] (read-out: AC50), more than 10 µM; in test [5], more than 30 µM; in test [6], more than 30 µM.

Consider `COc1ccccc1OCCNCC(O)COc1cccc2[nH]c3ccccc3c12` (stereo not drawn) [CARVEDILOL], for which the AC50 in test [1] is 0.061 µM; in test [2], more than 10 µM; in test [4] (read-out: AC50), 25.3 µM; in test [5] it was more than 10 µM; in test [6] it was more than 30 µM.

Turning to `O=C1CCc2cc(OCCCCc3nnnn3C3CCCCC3)ccc2N1` [CILOSTAZOL], the AC50 in test [1], in test [2], in test [3], in test [4] (read-out: AC50), in test [5] and in test [6] was more than 30 µM each time.

As to `C[C@@H](Oc1cc(-c2cnn(C3CCNCC3)c2)cnc1N)c1c(Cl)ccc(F)c1Cl` [CRIZOTINIB], the AC50 in test [1] is 1.2 µM; in test [4] (read-out: AC50), 8.44 µM; in test [5] it was more than 30 µM; in test [6], 8.2 µM.

Turning to `O=C1CN(/N=C/c2ccc(-c3ccc([N+](=O)[O-])cc3)o2)C(O)=N1` [DANTROLENE], the AC50 in test [1] was more than 10 µM; in test [2] it was more than 10 µM; in test [3] it was more than 30 µM; in test [4] (read-out: AC50), more than 10 µM; in test [5], more than 30 µM; in test [6], more than 10 µM.

Regarding `CN(C)CC[C@@H](c1ccc(Cl)cc1)c1ccccn1` [DEXCHLORPHENIRAMINE], the AC50 in test [1], in test [2], in test [4] (read-out: AC50), in test [5] and in test [6] was more than 30 µM in each case.

For the compound `CC(C)N(CCC(C(N)=O)(c1ccccc1)c1ccccn1)C(C)C` (stereo not drawn) [DISOPYRAMIDE], the AC50 in test [1] was more than 10 µM; in test [2], more than 10 µM; in test [4] (read-out: AC50), more than 30 µM; in test [5], more than 30 µM; in test [6] it was 13.6 µM.

As to `C[C@H]1c2cccc(O)c2C(=O)C2=C(O)[C@]3(O)C(=O)C(C(N)=O)=C(O)[C@@H](N(C)C)[C@@H]3[C@@H](O)[C@@H]21` [DOXYCYCLINE], the AC50 is more than 10 µM in test [1]; more than 10 µM in test [2]; more than 30 µM in test [3]; more than 30 µM in test [4] (read-out: AC50); more than 30 µM in test [5]; more than 30 µM in test [6].

Turning to `C[C@]12C=CC(=O)N[C@@H]1CC[C@@H]1[C@@H]2CC[C@]2(C)[C@@H](C(=O)Nc3cc(C(F)(F)F)ccc3C(F)(F)F)CC[C@@H]12` [DUTASTERIDE], the AC50 in test [1] was more than 10 µM; in test [2], more than 10 µM; in test [3], more than 30 µM; in test [4] (read-out: AC50) it was more than 10 µM; in test [5], more than 30 µM; in test [6] it was more than 10 µM.

For the compound `CN1C[C@H](C(=O)N[C@]2(C)O[C@@]3(O)[C@@H]4CCCN4C(=O)[C@H](Cc4ccccc4)N3C2=O)C=C2c3cccc4[nH]cc(c34)C[C@H]21` [ERGOTAMINE], the AC50 in test [1] was 0.14 µM; in test [3], 14.4 µM; in test [5], more than 30 µM; in test [6] it was 26 µM.

On to `CN(C)CCC[C@@]1(c2ccc(F)cc2)OCc2cc(C#N)ccc21` [ESCITALOPRAM], for which the AC50 in test [1], in test [4] (read-out: AC50), in test [5] and in test [6] was more than 30 µM in each case.

Turning to `C=C[C@H]1C[N@@]2CC[C@H]1C[C@@H]2[C@@H](O)c1ccnc2ccc(OC)cc12` [QUINIDINE], the AC50 was 18 µM in test [1], more than 30 µM in test [4] (read-out: AC50), more than 30 µM in test [5] and more than 30 µM in test [6].

On to `CO[C@H]1/C=C/O[C@@]2(C)Oc3c(C)c(O)c4c(O)c(c(/C=N/N5CCN(C)CC5)c(O)c4c3C2=O)NC(=O)/C(C)=C\C=C\[C@H](C)[C@H](O)[C@@H](C)[C@@H](O)[C@@H](C)[C@H](OC(C)=O)[C@@H]1C` [RIFAMPIN], for which the AC50 in test [1] was 11 µM; in test [2], more than 30 µM; in test [3], more than 30 µM; in test [4] (read-out: AC50), 22.5 µM; in test [5], 17 µM; in test [6] it was more than 30 µM.

With `CC(N)C12CC3CC(CC(C3)C1)C2` (stereo not drawn) [RIMANTADINE], the AC50 in test [1] is more than 10 µM; in test [2] it was more than 10 µM; in test [3], more than 30 µM; in test [4] (read-out: AC50), more than 10 µM; in test [5] it was more than 30 µM; in test [6], more than 10 µM.

Regarding `CN(C)CCc1c[nH]c2ccc(Cn3cncn3)cc12` [RIZATRIPTAN], the AC50 in test [1] was 20.8 µM; in test [2] it was more than 30 µM; in test [3] it was more than 30 µM; in test [4] (read-out: AC50), more than 30 µM; in test [5] it was more than 30 µM; in test [6] it was more than 30 µM.

On to `CC(C)c1nc(N(C)S(C)(=O)=O)nc(-c2ccc(F)cc2)c1/C=C/[C@@H](O)C[C@@H](O)CC(=O)O` [ROSUVASTATIN], for which the AC50 in test [1], in test [2], in test [3], in test [4] (read-out: AC50), in test [5] and in test [6] was more than 30 µM throughout.

Turning to `N[C@@H](CC(=O)N1CCn2c(nnc2C(F)(F)F)C1)Cc1cc(F)c(F)cc1F` [SITAGLIPTIN], the AC50 is more than 30 µM in test [1]; more than 10 µM in test [2]; more than 10 µM in test [4] (read-out: AC50); more than 30 µM in test [5]; more than 30 µM in test [6].

Regarding `CCN(CC)CCNC(=O)c1c(C)[nH]c(/C=C2\C(=O)Nc3ccc(F)cc32)c1C` [SUNITINIB], the AC50 in test [1] is 1.77 µM; in test [2], more than 30 µM; in test [4], 6.9 µM; in test [5], 1.7 µM; in test [6] it was more than 30 µM.

As for `CC(C)(C)NCC(O)c1cc(O)cc(O)c1` (stereo not drawn) [TERBUTALINE], the AC50 in test [3], in test [4] (read-out: AC50) and in test [6] was more than 30 µM throughout.

For the compound `CC(S)C(=O)NCC(=O)O` (stereo not drawn) [TIOPRONIN], the AC50 in test [1] was more than 30 µM; in test [3] it was more than 30 µM; in test [5], more than 30 µM; in test [6] it was 3.3 µM.

With `C[C@H](CCC(=O)O)[C@H]1CC[C@H]2[C@@H]3[C@@H](O)C[C@@H]4C[C@H](O)CC[C@]4(C)[C@H]3CC[C@]12C` [URSODIOL], the AC50 in test [1], in test [3], in test [5] and in test [6] was more than 30 µM in each case.
